Laboratory results published in patent US8962651B2, “Compounds for the treatment of hepatitis C” (Bristol-Myers Squibb Company, priority 2013, dated 2015).
Where two headings read alike, the source gives them in different places.

Legend:
HCV = conditions: cited from earlier work
HCV NS5B = HCV NS5B (Hepatitis C virus genotype 1b (isolate Con1) (HCV), UniProt Q9WMX2); assay: HCV NS5B RdRp enzyme assay; format: biochemical, HCV genotype 1b (Con1)
Method: Each untagged protein was expressed with an 18 amino acid C-terminal truncation to enhance the solubility. The E. coli competent cell line BL21(DE3) was used for expression of the protein. […] The cultures were cooled to 20° C. and induced with 1 mM IPTG. Fresh ampicillin was added to a final concentration of 50 μg/mL and the cells were grown overnight at 20° C.
The lysis buffer consisted of 20 mM Tris-HCl, pH 7.4, 500 mM NaCl, 0.5% triton X-100, 1 mM DTT, 1 mM EDTA, 20% glycerol, 0.5 mg/mL lysozyme, 10 mM MgCl2, 15 ug/mL deoxyribonuclease I, and Complete TM protease inhibitor tablets (Roche). After addition of the lysis buffer, frozen cell pellets were resuspended using a tissue homogenizer. To reduce the viscosity of the sample, aliquots of the lysate were sonicated on ice using a microtip attached to a Branson sonicator. The sonicated lysate was centrifuged at 100,000×g for 30 minutes at 4° C. and filtered through a 0.2 μm filter unit (Corning).
The protein was purified using two sequential chromatography steps: Heparin sepharose CL-6B and polyU sepharose 4B. The chromatography buffers were identical to the lysis buffer but contained no lysozyme, deoxyribonuclease I, MgCl2 or protease inhibitor and the NaCl concentration of the buffer was adjusted according to the requirements for charging the protein onto the column. Each column was eluted with a NaCl gradient which varied in length from 5-50 column volumes depending on the column type. […] The enzyme was aliquoted and stored at −80° C.
An on-bead solid phase homogeneous assay was used in a 384-well format to assess NS5B inhibitors (WangY-K, Rigat K, Roberts S, and Gao M (2006) Anal Biochem, 359: 106-111). The biotinylated oligo dT12 primer was captured on streptavidin-coupled imaging beads (GE, RPNQ0261) by mixing primer and beads in 1× buffer and incubating at room temperature for three hours. Unbound primer was removed after centrifugation. The primer-bound beads were resuspended in 3× reaction mix (20 mM Hepes buffer, pH 7.5, dT primer coupled beads, poly A template, ^3H-UTP, and RNAse inhibitor (Promega N2515)). Compounds were serially diluted 1:3 in DMSO and aliquoted into assay plates. […]
Reactions were allowed to proceed for 24 hours at 30° C. and terminated by the addition of 50 mM EDTA (5 μL). After incubating for at least 15 minutes, plates were read on an Amersham LEADseeker multimodality imaging system.
IC50 values for compounds were determined using ten different [I]. IC50 values were calculated from the inhibition using the four-parameter logistic formula y=A+((B−A)/(1+((C/x)^D))), where A and B denote minimal and maximal % inhibition, respectively, C is the IC50, D is hill slope and x represents compound concentration.

[1] = test system: genotype 1b (Con-1) HCV replicon; assay: HCV replicon luciferase assay; format: cell-based; conditions: Hepatitis C virus, Huh-7, 72 h, 1b replicon, Huh-7 cells, Renilla luciferase, 3 days incubation
Method: The cell lines used to evaluate compounds consist of a human hepatocyte derived cell line (Huh-7) that constitutively expresses a genotype 1b (Con-1) HCV replicon or a genotype 1b (Con-1) HCV replicon with an asparagine replacing the cysteine at amino acid 316, or a genotype 2a (JFH-1) replicon, containing a Renilla luciferase reporter gene. These cells were maintained in Dulbecco's modified Eagle medium (DMEM) containing 10% FBS, 100 U/mL penicillin/streptomycin and 1.0 mg/mL G418.
After 3 days incubation at 37° C., cells were analyzed for Renilla Luciferase activity using the EnduRen substrate (Promega cat #E6485) according to the manufacturer's directions. Briefly, the EnduRen substrate was diluted in DMEM and then added to the plates to a final concentration of 7.5 μM. The plates were incubated for at least 1 h at 37° C. then read on a Viewlux Imager (PerkinElmer) using a luminescence program.

[2] = extended dosing, combination with interferon and ribavirin; cited from earlier work
[3] = 1b enzyme, 7 nM NS5B, 24 hours at 30° C., read-out: IC50

Chain of HCV NS5B (Q9WMX2 2420-2992): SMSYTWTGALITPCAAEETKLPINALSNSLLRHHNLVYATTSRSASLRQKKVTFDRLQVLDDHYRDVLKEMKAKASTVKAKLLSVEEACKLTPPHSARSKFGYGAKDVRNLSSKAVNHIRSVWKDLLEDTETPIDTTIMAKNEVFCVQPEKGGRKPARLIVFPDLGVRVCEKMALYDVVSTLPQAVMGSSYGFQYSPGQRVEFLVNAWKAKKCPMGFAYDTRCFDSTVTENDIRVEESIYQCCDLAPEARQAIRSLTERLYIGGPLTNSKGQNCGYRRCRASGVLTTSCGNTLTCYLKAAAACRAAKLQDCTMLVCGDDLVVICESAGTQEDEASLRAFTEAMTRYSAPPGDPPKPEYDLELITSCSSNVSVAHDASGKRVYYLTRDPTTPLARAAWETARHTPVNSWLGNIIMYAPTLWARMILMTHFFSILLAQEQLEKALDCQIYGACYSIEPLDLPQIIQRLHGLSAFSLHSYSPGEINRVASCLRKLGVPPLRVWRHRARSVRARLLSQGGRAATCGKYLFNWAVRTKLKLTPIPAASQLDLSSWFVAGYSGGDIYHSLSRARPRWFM

For alpha-interferon and ribavirin, which sustained efficacy (HCV; combination therapy) is on record?
The sustained efficacy was 40 % of patients.

With `[2H]C([2H])([2H])Oc1ncc(-c2cc3c(C(=O)NC)c(-c4ccc(F)cc4)oc3nc2CCC(F)(F)F)cc1C(=O)NC(c1ncon1)(C([2H])([2H])[2H])C([2H])([2H])[2H]` [Example 17, 5-[2-(4-fluorophenyl)-3-(methylcarbamoyl)-6-(3,3,3-trifluoropropyl)furo[2,3-b]pyridin-5-yl]-2-(^2H3)methoxy-N-[2-(1,2,4-oxadiazol-3-yl)(^2H6)propan-2-yl]pyridine-3-carboxamide] as the compound, how does the IC50 (HCV NS5B) read?
Its IC50 is 2.4 nM.

Which EC50 [1] does the source give for `CNC(=O)c1c(-c2ccc(F)cc2)oc2nc(NCC(F)(F)F)c(-c3ccc(F)c(C(=O)NC(C)(C)c4ncon4)c3)cc12` [Example 13, 5-(3-((2-(1,2,4-oxadiazol-3-yl)propan-2-yl)carbamoyl)-4-fluorophenyl)-2-(4-fluorophenyl)-N-methyl-6-((2,2,2-trifluoroethyl)amino)furo[2,3-b]pyridine-3-carboxamide] here?
The EC50 was 5.76 nM.

And the IC50 (HCV NS5B; [3])?
Its IC50 is 3.42 nM.

What does the source list for `CNC(=O)c1c(-c2ccc(F)cc2)oc2nc(CCC(F)(F)F)c(-c3cccc(C(=O)NC(C)(C)c4nc(C)no4)c3)cc12` [Example 9, 2-(4-fluorophenyl)-N-methyl-5-(3-((2-(3-methyl-1,2,4-oxadiazol-5-yl)propan-2-yl)carbamoyl)phenyl)-6-(3,3,3-trifluoropropyl)furo[2,3-b]pyridine-3-carboxamide]?
EC50 [1]: 2.11 nM; IC50 (HCV NS5B; [3]): 2.87 nM

Which EC50 [1] does the source give for `CNC(=O)c1c(-c2ccc(F)cc2)oc2nc(CCC(F)(F)F)c(-c3cccc(C(=O)NC4(c5ncon5)CCC4)c3)cc12` [Example 4, 5-(3-((1-(1,2,4-oxadiazol-3-yl)cyclobutyl)carbamoyl)phenyl)-2-(4-fluorophenyl)-N-methyl-6-(3,3,3-trifluoropropyl)furo[2,3-b]pyridine-3-carboxamide] here?
Its EC50 is 2.41 nM.

And the IC50 (HCV NS5B; [3])?
The IC50 was 2.05 nM.

Which results are given for `CNC(=O)c1c(-c2ccc(F)cc2)oc2cc(N(CCO)S(C)(=O)=O)c(C3CC3)cc12` [HCV-796]?
HCV RNA levels in patients (HCV; single agent, transient decrease then rebound during dosing): reduce HCV RNA levels in patients; hepatic toxicity [2]: hepatic toxicity observed during extended dosing of the combination regimens
